Key:
[1] = molecular target: GDP-bound NRAS wild-type protein (Homo sapiens, UniProt P01111); test: Binding to NRAS by surface plasmon resonance (SPR), Single Cycle Kinetics; conditions: KD ratio NRAS/KRAS, SPR
[2] = molecular target: GDP-bound HRAS wild-type protein (Homo sapiens, UniProt P01112); test: Binding to HRAS by surface plasmon resonance (SPR), Single Cycle Kinetics; conditions: KD ratio HRAS/KRAS, SPR
GDP-bound HRAS wild-type protein, sequence (P01112 whole entry): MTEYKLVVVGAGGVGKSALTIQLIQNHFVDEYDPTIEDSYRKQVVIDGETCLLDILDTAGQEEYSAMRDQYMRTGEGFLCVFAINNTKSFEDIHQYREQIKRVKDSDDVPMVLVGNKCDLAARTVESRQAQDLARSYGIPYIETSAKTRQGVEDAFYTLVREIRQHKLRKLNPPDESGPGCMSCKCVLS

GDP-bound NRAS wild-type protein, sequence (P01111 whole entry): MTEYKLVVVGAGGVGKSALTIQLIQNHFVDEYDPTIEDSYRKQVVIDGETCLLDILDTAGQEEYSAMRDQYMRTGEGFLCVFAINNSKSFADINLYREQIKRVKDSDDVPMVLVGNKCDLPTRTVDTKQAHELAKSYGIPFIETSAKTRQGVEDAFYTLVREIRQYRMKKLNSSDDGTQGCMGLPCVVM

Compound | NRAS/KRAS (ratio of KD value with respect to GDP-bound NRAS wild-type protein to KD value with respect to KRAS) [1] | HRAS/KRAS (ratio of KD value with respect to GDP-bound HRAS wild-type protein to KD value with respect to KRAS) [2]
CC[C@H](C)[C@@H]1NC(=O)[C@H](CC(C)C)N(C)C(=O)C[C@@H](C(=O)N2CCOCC2)N(C)C(=O)[C@H](C2CCCC2)N(C)C(=O)C2(COC2)NC(=O)[C@@H]2CCCN2C(=O)[C@H](CCc2cc(F)c(C(F)(F)F)c(F)c2)NC(=O)CN(C)C(=O)[C@H](Cc2ccc(C(F)(F)F)cc2)N2CCCC[C@@H](C2=O)N(C)C(=O)CN(C)C1=O [PP0563] | B (a compound having 3 or more and less than 10 is denoted as B) | B (a compound having 3 or more and less than 10 is denoted as B)
CC[C@H](C)[C@@H]1NC(=O)[C@H](CC(C)C)N(C)C(=O)C[C@@H](C(=O)N2CCOCC2)N(C)C(=O)[C@H](C2CCCC2)N(C)C(=O)C2(CCOCC2)NC(=O)[C@@H]2CCCN2C(=O)[C@H](CCc2cc(F)c(C(F)(F)F)c(F)c2)NC(=O)CN(C)C(=O)[C@H](Cc2ccc(C(F)(F)F)cc2)N2CCCC[C@@H](C2=O)N(C)C(=O)CN(C)C1=O [PP0564] | B (a compound having 3 or more and less than 10 is denoted as B) | B (a compound having 3 or more and less than 10 is denoted as B)
CC[C@H](C)[C@@H]1NC(=O)[C@H](CC(C)C)N(C)C(=O)C[C@@H](C(=O)N2CCOCC2)N(C)C(=O)[C@H](C2CCCC2)N(C)C(=O)C(C)(C)NC(=O)[C@@H]2CCCN2C(=O)[C@H](CCc2cc(F)c(C(F)(F)F)c(F)c2)NC(=O)CN(C)C(=O)[C@H](Cc2ccc(C(F)(F)F)cc2)N2CCCC[C@@H](C2=O)N(C)C(=O)CN(C)C1=O [PP0565] | C (A compound having a KD ratio of 0.1 or more and less than 3 is denoted as C) | B (a compound having 3 or more and less than 10 is denoted as B)
CC[C@H](C)[C@@H]1NC(=O)[C@H](CC(C)C)N(C)C(=O)C[C@@H](C(=O)N2CCOCC2)N(C)C(=O)[C@H](C2CCC2)N(C)C(=O)C2(CCCC2)NC(=O)[C@@H]2CCCN2C(=O)[C@H](CCc2cc(F)c(C(F)(F)F)c(F)c2)NC(=O)CN(C)C(=O)[C@H](Cc2ccc(C(F)(F)F)cc2)N2CCCC[C@@H](C2=O)N(C)C(=O)CN(C)C1=O [PP0566] | B (a compound having 3 or more and less than 10 is denoted as B) | B (a compound having 3 or more and less than 10 is denoted as B)
CC[C@H](C)[C@@H]1NC(=O)[C@H](CC(C)C)N(C)C(=O)C[C@@H](C(=O)N2CCOCC2)N(C)C(=O)[C@H](C2CCCCC2)N(C)C(=O)C2(CCCC2)NC(=O)[C@@H]2CCCN2C(=O)[C@H](CCc2cc(F)c(C(F)(F)F)c(F)c2)NC(=O)CN(C)C(=O)[C@H](Cc2ccc(C(F)(F)F)cc2)N2CCCC[C@@H](C2=O)N(C)C(=O)CN(C)C1=O [PP0567] | B (a compound having 3 or more and less than 10 is denoted as B) | B (a compound having 3 or more and less than 10 is denoted as B)
CC[C@H](C)[C@@H]1NC(=O)[C@H](CC(C)C)N(C)C(=O)C[C@@H](C(=O)N2CCOCC2)N(C)C(=O)[C@H](CC(F)(F)F)N(C)C(=O)C2(CCCC2)NC(=O)[C@@H]2CCCN2C(=O)[C@H](CCc2cc(F)c(C(F)(F)F)c(F)c2)NC(=O)CN(C)C(=O)[C@H](Cc2ccc(C(F)(F)F)cc2)N2CCCC[C@@H](C2=O)N(C)C(=O)CN(C)C1=O [PP0568] | B (a compound having 3 or more and less than 10 is denoted as B) | B (a compound having 3 or more and less than 10 is denoted as B)
CC[C@H](C)[C@@H]1NC(=O)[C@H](CC(C)C)N(C)C(=O)C[C@@H](C(=O)N(C)C)N(C)C(=O)[C@H](C2CCCC2)N(C)C(=O)C2(CCCC2)NC(=O)[C@@H]2CCCN2C(=O)[C@H](CCc2cc(F)c(C(F)(F)F)c(F)c2)NC(=O)CN(C)C(=O)[C@H](Cc2ccc(C(F)(F)F)cc2)N2CCCC[C@@H](C2=O)N(C)C(=O)CN(C)C1=O [PP0569] | C (A compound having a KD ratio of 0.1 or more and less than 3 is denoted as C) | B (a compound having 3 or more and less than 10 is denoted as B)
CC[C@H](C)[C@@H]1NC(=O)[C@H](CC(C)C)N(C)C(=O)C[C@@H](C(=O)N2CCC2)N(C)C(=O)[C@H](C2CCCC2)N(C)C(=O)C2(CCCC2)NC(=O)[C@@H]2CCCN2C(=O)[C@H](CCc2cc(F)c(C(F)(F)F)c(F)c2)NC(=O)CN(C)C(=O)[C@H](Cc2ccc(C(F)(F)F)cc2)N2CCCC[C@@H](C2=O)N(C)C(=O)CN(C)C1=O [PP0570] | B (a compound having 3 or more and less than 10 is denoted as B) | B (a compound having 3 or more and less than 10 is denoted as B)
CC[C@H](C)[C@@H]1NC(=O)[C@H](CC(C)C)N(C)C(=O)C[C@@H](C(=O)N2CCCC2)N(C)C(=O)[C@H](C2CCCC2)N(C)C(=O)C2(CCCC2)NC(=O)[C@@H]2CCCN2C(=O)[C@H](CCc2cc(F)c(C(F)(F)F)c(F)c2)NC(=O)CN(C)C(=O)[C@H](Cc2ccc(C(F)(F)F)cc2)N2CCCC[C@@H](C2=O)N(C)C(=O)CN(C)C1=O [PP0571] | B (a compound having 3 or more and less than 10 is denoted as B) | B (a compound having 3 or more and less than 10 is denoted as B)
CC[C@H](C)[C@@H]1NC(=O)[C@H](CC(C)C)N(C)C(=O)C[C@@H](C(=O)N2CCCCC2)N(C)C(=O)[C@H](C2CCCC2)N(C)C(=O)C2(CCCC2)NC(=O)[C@@H]2CCCN2C(=O)[C@H](CCc2cc(F)c(C(F)(F)F)c(F)c2)NC(=O)CN(C)C(=O)[C@H](Cc2ccc(C(F)(F)F)cc2)N2CCCC[C@@H](C2=O)N(C)C(=O)CN(C)C1=O [PP0572] | B (a compound having 3 or more and less than 10 is denoted as B) | B (a compound having 3 or more and less than 10 is denoted as B)
CC[C@H](C)[C@@H]1NC(=O)[C@H](CC(C)C)N(C)C(=O)C[C@@H](C(=O)N2C3CCC2COC3)N(C)C(=O)[C@H](C2CCCC2)N(C)C(=O)C2(CCCC2)NC(=O)[C@@H]2CCCN2C(=O)[C@H](CCc2cc(F)c(C(F)(F)F)c(F)c2)NC(=O)CN(C)C(=O)[C@H](Cc2ccc(C(F)(F)F)cc2)N2CCCC[C@@H](C2=O)N(C)C(=O)CN(C)C1=O [PP0573] | B (a compound having 3 or more and less than 10 is denoted as B) | B (a compound having 3 or more and less than 10 is denoted as B)
CC[C@H](C)[C@@H]1NC(=O)[C@H](CC(C)C)N(C)C(=O)C[C@@H](C(=O)N(C)C)N(C)C(=O)[C@H](C2CCCC2)N(C)C(=O)C2(CCC2)NC(=O)[C@@H]2CCCN2C(=O)[C@H](CCc2cc(F)c(C(F)(F)F)c(F)c2)NC(=O)CN(C)C(=O)[C@H](Cc2ccc(C(F)(F)F)cc2)N2CCCC[C@@H](C2=O)N(C)C(=O)CN(C)C1=O [PP0574] | C (A compound having a KD ratio of 0.1 or more and less than 3 is denoted as C) | B (a compound having 3 or more and less than 10 is denoted as B)
CC[C@H](C)[C@@H]1NC(=O)[C@H](CC(C)C)N(C)C(=O)C[C@@H](C(=O)N2CCOCC2)N(C)C(=O)[C@H](C2CCCC2)N(C)C(=O)C2(CCC2)NC(=O)[C@@H]2CC(F)(F)CN2C(=O)[C@H](CCc2cc(F)c(C(F)(F)F)c(F)c2)NC(=O)CN(C)C(=O)[C@H](Cc2ccc(C(F)(F)F)cc2)N2CCCC[C@@H](C2=O)N(C)C(=O)CN(C)C1=O [PP0575] | B (a compound having 3 or more and less than 10 is denoted as B) | B (a compound having 3 or more and less than 10 is denoted as B)
CC[C@H](C)[C@@H]1NC(=O)[C@H](CC(C)C)N(C)C(=O)C[C@@H](C(=O)N(C)C)N(C)C(=O)[C@H](C2CCCC2)N(C)C(=O)C2(CCCC2)NC(=O)[C@@H]2CC(F)(F)CN2C(=O)[C@H](CCc2cc(F)c(C(F)(F)F)c(F)c2)NC(=O)CN(C)C(=O)[C@H](Cc2ccc(C(F)(F)F)cc2)N2CCCC[C@@H](C2=O)N(C)C(=O)CN(C)C1=O [PP0576] | C (A compound having a KD ratio of 0.1 or more and less than 3 is denoted as C) | B (a compound having 3 or more and less than 10 is denoted as B)
CC[C@H](C)[C@@H]1NC(=O)[C@H](CC(C)C)N(C)C(=O)C[C@@H](C(=O)N(C)C)N(C)C(=O)[C@H](C2CCCC2)N(C)C(=O)C2(CCC2)NC(=O)[C@@H]2CC(F)(F)CN2C(=O)[C@H](CCc2cc(F)c(C(F)(F)F)c(F)c2)NC(=O)CN(C)C(=O)[C@H](Cc2ccc(C(F)(F)F)cc2)N2CCCC[C@@H](C2=O)N(C)C(=O)CN(C)C1=O [PP0577] | C (A compound having a KD ratio of 0.1 or more and less than 3 is denoted as C) | C (A compound having a KD ratio of 0.1 or more and less than 3 is denoted as C)

Source: patent US20250230193A1, “CYCLIC COMPOUND HAVING SELECTIVE KRAS INHIBITORY EFFECT ON HRAS AND NRAS” (CHUGAI SEIYAKU KABUSHIKI KAISHA, priority 2022, published 2025)
